Results as given in article PMC10296415, “Methyl-Thiol-Bridged Oxadiazole and Triazole Heterocycles as Inhibitors of NF-κB in Chronic Myelogenous Leukemia Cells” (Biomedicines, 2023).

Tests used:
MCF-7 cell line = assay: MTT cell viability assay, MCF-7; format: cell-based
Procedure: MCF-7 cells were purchased from Procell Life Science and Technology Co., Ltd., Wuhan, China, and cultured in MEM or Leibovitz’s L-15 medium containing 2% FBS. MCF-7 cells were maintained in a 5% CO2-humidified atmosphere at 37 °C. KCL22, LAMA84, and K562 cells were obtained from the American Type Culture Collection (Manassas, VA, USA). The KBM5 cell line was previously provided by Dr. Bharat Aggarwal (University of Texas M.D. Anderson Cancer Center, Houston, TX, USA). KBM5 cells were cultured in IMDM medium with 10% inactivated FBS and 1% penicillin-streptomycin. KCL22, LAMA84, and K562 cells were cultured in RPMI with 10% FBS and 1% penicillin-streptomycin antibiotics and maintained at 37 °C in a 5% CO2 chamber.
(§1) Cells (1 × 10^4 cells/well) were seeded on a 96-well plate and treated with 4c (0, 5, 10, 15, 30, 50 µM) for 24 h. After 24 h of treatment, 30 µL of MTT solution (2 mg/mL) for 2 h, followed by MTT lysis overnight. Cell viability was analyzed by measuring the absorbance of lysed MTT crystals using VARIOSKAN LUX (Thermo Fisher Scientific Inc., Waltham, MA, USA) at 570 nm.

MCF-10A cells = assay: Cytotoxicity assay, MCF-10A; format: cell-based; details: normal mammary epithelial cells
Procedure: as §1

[1] = DFT frontier molecular orbital calculations
Procedure: Computational DFT studies for the molecules were performed using Gaussian09 [35]. The molecule was built and visualized by the Gaussview 5 program package. The molecular geometry of the molecules was optimized at the B3LYP level with a 6-311++G (d,p) basis set.
FMO analysis of compound 4c was performed using the B3LYP method with a 6-311 (2d, p) basis set. The HOMO of a molecule represents the site where the electron density is highest and is involved in electron donation, whereas the LUMO represents the site where the electron density is lowest and is involved in electron acceptance. The ELUMO-EHOMO energy gap is directly related to the molecule’s chemical reactivity and kinetic stability. The molecule has a smaller energy gap, which is attributed to less stability and more reactivity. In contrast, the molecule has a large energy gap, attributed to being less chemically reactive and having high chemical stability with greater hardness. […] It is observed that the HOMO-LUMO energy gap of 4l decreased by 1.24 eV and 1.04 eV in alpha and beta orbitals, respectively, when compared with the 4c molecule. […] In contrast, LUMO orbitals were localized on dichlorophenyl, triazole groups, and sulphur atoms of the lead molecule 4c. The chemical potential values for 4c and 4i were estimated to be −4.23 eV and −3.91 eV, respectively, and reflects their significant electron-accepting capacity. […]

[2] = Homo sapiens, MCF7, viability of MCF-7 cell line

Row | SMILES | IC50 (MCF-7 cell line; [2]) | melting point | other results
1 | COc1ccc(Cc2nnc(SCc3cn(-c4ccc(C)cc4)nn3)o2)cc1OC [Compound 4q, 2-(3,4-Dimethoxybenzyl)-5-(((1-(p-tolyl)-1H-1,2,3-triazol-4-yl)methyl)thio)-1,3,4-oxadia-zole] | – | – | IC50 (MCF-7 cell line; viability of MCF-7 cell line): 19.7 ± 1.3 µM; IC50 (MCF-10A cells): > 100 µM
2 | COc1ccc(Cc2nnc(SCc3cn(-c4ccc(Cl)cc4)nn3)o2)cc1 [Compound 4a, 2-(((1-(4-Chlorophenyl)-1H-1,2,3-triazol-4-yl)methyl)thio)-5-(4-methoxybenzyl)-1,3,4-oxadiazole] | 9.58 ± 0.98 µM | 92 to 94 °C | IC50 (MCF-10A cells; Homo sapiens, MCF-10A): > 100 µM
3 | COc1ccc(Cc2nnc(SCc3cn(-c4ccccc4O)nn3)o2)cc1OC [Compound 4p, 2-(4-(((5-(3,4-Dimethoxybenzyl)-1,3,4-oxadiazol-2-yl)thio)methyl)-1H-1,2,3-triazol-1-yl)phenol] | 65 ± 1.81 µM | 122 to 124 °C | –
4 | COc1ccc(Cc2nnc(SCc3cn(-c4cccc(Cl)c4)nn3)o2)cc1OC [Compound 4n, 2-(((1-(3-Chlorophenyl)-1H-1,2,3-triazol-4-yl)methyl)thio)-5-(3,4-dimethoxybenzyl)-1,3,4-oxadiazole] | 23.2 ± 1.37 µM | 70 to 72 °C | –
5 | COc1ccc(Cc2nnc(SCc3cn(-c4ccc(O)cc4)nn3)o2)cc1 [Compound 4g, 4-(4-(((5-(4-Methoxybenzyl)-1,3,4-oxadiazol-2-yl)thio)methyl)-1H-1,2,3-triazol-1-yl)phenol] | 29.7 ± 1.47 µM | 94 to 96 °C | –
6 | COc1ccc(Cc2nnc(SCc3cn(-c4ccc(Cl)c(Cl)c4)nn3)o2)cc1OC [Compound 4l, 2-(((1-(3,4-Dichlorophenyl)-1H-1,2,3-triazol-4-yl)methyl)thio)-5-(3,4-dimethoxybenzyl)-1,3,4-oxadiazole] | 23.8 ± 1.38 µM | 102 to 104 °C | decrease of HOMO-LUMO energy gap compared with the 4c molecule ([1]; alpha orbitals): 1.24 eV; decrease of HOMO-LUMO energy gap compared with the 4c molecule ([1]; beta orbitals): 1.04 eV
7 | COc1ccc(Cc2nnc(SCc3cn(-c4ccccc4C)nn3)o2)cc1OC [Compound 4r, 2-(3,4-Dimethoxybenzyl)-5-(((1-(o-tolyl)-1H-1,2,3-triazol-4-yl)methyl)thio)-1,3,4-oxadia-zole] | – | – | IC50 (MCF-7 cell line; viability of MCF-7 cell line): 35.7 ± 1.55 µM
8 | COc1cccc2c1C(=O)c1c(O)c3c(c(O)c1C2=O)C[C@@](O)(C(=O)CO)C[C@@H]3O[C@H]1C[C@H](N)[C@H](O)[C@H](C)O1 [Doxorubicin, reference compound] | 0.91 ± 0.04 µM | – | –
9 | COc1ccc(Cc2nnc(SCc3cn(-c4ccccc4)nn3)o2)cc1 [Compound 4d, 2-(4-Methoxybenzyl)-5-(((1-phenyl-1H-1,2,3-triazol-4-yl)methyl)thio)-1,3,4-oxadiazole] | 25.8 ± 1.41 µM | 60 to 62 °C | –
10 | COc1ccc(Cc2nnc(SCc3cn(-c4ccccc4)nn3)o2)cc1OC [Compound 4m, 2-(3,4-Dimethoxybenzyl)-5-(((1-phenyl-1H-1,2,3-triazol-4-yl)methyl)thio)-1,3,4-oxadiazole] | 28.3 ± 1.45 µM | 46 to 48 °C | –
11 | COc1ccc(Cc2nnc(SCc3cn(-c4ccc(Cl)cc4)nn3)o2)cc1OC [Compound 4j, 2-(((1-(4-Chlorophenyl)-1H-1,2,3-triazol-4-yl)methyl)thio)-5-(3,4-dimethoxybenzyl)-1,3,4-oxadiazole] | 40.5 ± 1.61 µM | 72 to 74 °C | –
12 | COc1ccc(-n2cc(CSc3nnc(Cc4ccc(OC)c(OC)c4)o3)nn2)cc1 [Compound 4o, 2-(3,4-Dimethoxybenzyl)-5-(((1-(4-methoxyphenyl)-1H-1,2,3-triazol-4-yl)methyl)thio)-1,3,4-oxadiazole] | 35.8 ± 1.55 µM | 76 to 78 °C | –
13 | COc1ccc(Cc2nnc(SCc3cn(-c4ccc(C)cc4)nn3)o2)cc1 [Compound 4i, 2-(4-Methoxybenzyl)-5-(((1-(p-tolyl)-1H-1,2,3-triazol-4-yl)methyl)thio)-1,3,4-oxadiazole] | 45.4 ± 1.66 µM | 104 to 106 °C | –
14 | COc1ccc(Cc2nnc(SCc3cn(-c4ccc(Br)cc4)nn3)o2)cc1 [Compound 4b, 2-(((1-(4-Bromophenyl)-1H-1,2,3-triazol-4-yl)methyl)thio)-5-(4-methoxybenzyl)-1,3,4-oxadia-zole] | – | – | IC50 (MCF-7 cell line; viability of MCF-7 cell line): 8.44 ± 0.93 µM; IC50 (MCF-10A cells): > 100 µM
15 | COc1ccc(Cc2nnc(SCc3cn(-c4cccc(Cl)c4)nn3)o2)cc1 [Compound 4e, 2-(((1-(3-Chlorophenyl)-1H-1,2,3-triazol-4-yl)methyl)thio)-5-(4-methoxybenzyl)-1,3,4-oxadiazole] | 9 to 16 µM | 94 to 96 °C | IC50 (MCF-7 cell line; viability of MCF-7 cell line): 16.9 ± 1.23 µM; IC50 (MCF-10A cells; Homo sapiens, MCF-10A): > 100 µM
16 | COc1ccc(Cc2nnc(SCc3cn(-c4ccc(Br)cc4)nn3)o2)cc1OC [Compound 4k, 2-(((1-(4-Bromophenyl)-1H-1,2,3-triazol-4-yl)methyl)thio)-5-(3,4-dimethoxybenzyl)-1,3,4-oxadiazole] | 31.9 ± 1.5 µM | 98 to 100 °C | –
17 | COc1ccc(Cc2nnc(SCc3cn(-c4ccccc4C)nn3)o2)cc1 [Compound 4h, 2-(4-Methoxybenzyl)-5-(((1-(o-tolyl)-1H-1,2,3-triazol-4-yl)methyl)thio)-1,3,4-oxadiazole] | 26.2 ± 1.42 µM | – | –
18 | COc1ccc(Cc2nnc(SCc3cn(-c4ccc(OC)cc4)nn3)o2)cc1 [Compound 4f, 2-(4-Methoxybenzyl)-5-(((1-(4-methoxyphenyl)-1H-1,2,3-triazol-4-yl)methyl)thio)-1,3,4-oxadiazole] | 34.5 ± 1.54 µM | 90 to 92 °C | –
